# Measured values from PubChem BioAssay AID720587 (Broad Institute, 2013).
# Calls of active or inactive are those of the source.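 Rule for the calls: active = fitted curve reaches -35% activity change at a concentration below twice the top valid dose tested; inactive = the rest, including effects opposite to the expected direction.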
# Test system: not listed separately
# Test: EWS/Fli1-dependent A673 cell killing, confirmation, CellTiter-Glo luminescence, cherry-pick retest (AID 720587)
# Conditions: A673 Ewing sarcoma viability, CellTiter-Glo ATP luminescence, 72 h; at 23.5 µM (top of the series)
row,Compound,"activity change, negative = cytotoxicity"
1,N#C[C@H]1[C@H](c2ccc(C#Cc3ccccc3F)cc2)[C@@H](CO)N1C(=O)C1CCCCC1,-7.62% (inactive)
2,CCCNC(=O)N1[C@H](C#N)[C@H](c2ccc(C#Cc3cccc(F)c3)cc2)[C@H]1CO,5% (inactive)

# Same assay, conditions: A673 Ewing sarcoma viability, CellTiter-Glo ATP luminescence, 72 h; at 26 µM (top of the series)
row,Compound,"activity change, negative = cytotoxicity"
1,CC(NC(=O)c1ccco1)c1nc(-c2ccc(C(C)(C)C)cc2)no1 (stereo not given),-2.68% (inactive)
2,Cc1ccsc1/C=N/Nc1ccc(C(=O)O)cc1,5.43% (inactive)
3,C[C@@H]1CN([C@@H](C)CO)C(=O)c2cccc(NC(=O)Nc3ccccc3)c2O[C@@H]1CN(C)Cc1ccc(-c2ccccc2)cc1,-1.33% (inactive)
4,Cc1ccc(C(=O)CN2C(=O)c3ccccc3S2(=O)=O)cc1,11.7% (inactive)
5,COc1cc(OC)cc(-c2cc3nc(C)c(CCC(=O)NCc4ccccc4)c(C)n3n2)c1,6.68% (inactive)
6,CC(C)(C)c1ccc(Oc2ccc(NC(=O)C3CC=CCC3C(=O)O)cc2)cc1 (stereo not given),6.05% (inactive)
7,O=C(/C=C/c1ccc(Cl)cc1Cl)N(Cc1ccc(Cl)cc1)C1CCS(=O)(=O)C1 (stereo not given),2.8% (inactive)
8,O=c1c2ccccc2oc2ccc(C#CC3(O)CCCCC3)cc12,1.29% (inactive)
9,COc1ccc(/C=C2\SC(=S)N(CCCC(=O)NC3CCCC3)C2=O)cc1OC,-18.4% (inactive)
10,COc1ccc(C(=O)CN2C(=O)c3ccccc3S2(=O)=O)cc1,1.43% (inactive)
11,O=c1c2ccccc2oc2cc(C#CC3(O)CCCCC3)ccc12,6.95% (inactive)
12,CCc1cnc(N2[C@H](C#N)[C@H](c3ccc(C#Cc4ccccc4F)cc3)[C@H]2CO)s1,-10.8% (inactive)
13,COC(=O)Cc1[nH]n(-c2nc3ccccc3s2)c(=O)c1C(C)=Nc1ccc(C)cc1,-10.7% (inactive)
14,COc1ccc(CCC(C)NCC2CCCCC2)cc1 (stereo not given),2.42% (inactive)
15,COc1ccc(Nc2ncnc3ccc(Br)cc23)c(OC)c1,-5.17% (inactive)
16,O=C(Nc1ccc(OC(=O)N2CCCCC2)cc1)N1CCOCC1,1.28% (inactive)
17,Cc1c(-c2nc(-c3ccc(C(C)(C)C)cc3)no2)n(C)oc1=O,2.17% (inactive)
18,Cc1c(CC(=O)NCCCC(=O)O)c(=O)oc2cc3c(cc12)CCC(C)(C)O3,-4.88% (inactive)
19,O=C(O)c1cccc(N/N=C/c2ccc(OC(F)(F)F)cc2)c1,10.4% (inactive)
20,CC(=O)c1ccc(N=C2C(=O)Nc3ccccc32)cc1,-4.29% (inactive)
21,O=C(CCCCl)Nc1nc(-c2ccc3c(c2)OCCO3)cs1,10.2% (inactive)
22,N#C[C@@H]1[C@H](c2ccc(C#Cc3ccccc3F)cc2)[C@@H](CO)N1C(=O)c1cccnc1,1.54% (inactive)
23,CCOc1ccc(/C=C2\CCc3ccccc3C2=O)cc1,-1.55% (inactive)
24,COc1ccccc1-c1cn(CC[C@H]2CC[C@@H](NC(=O)C3CCCC3)[C@@H](CO)O2)nn1,6.63% (inactive)
25,Cc1ccc(NC(=O)COC(=O)c2ccc3c(c2)OCO3)cc1S(=O)(=O)N1CCCCC1,-4.65% (inactive)
26,CCOc1ccc(-c2cc(CCCC(=O)N3CCN(c4ccc(OC)cc4)CC3)no2)cc1,9.05% (inactive)
27,COc1ccc(/C=C2\SC(=S)N(CCCC(=O)Nc3ccc(O)cc3)C2=O)cc1,-14.2% (inactive)

# Test system: A673 Ewing sarcoma viability, CellTiter-Glo ATP luminescence, 72 h
# Test: as above
# Conditions: not given
row,Compound,AC35
1,COc1ccc(CN(C)c2ncnc3sccc23)c(OC)c1OC,15.3 µM
2,Nc1ccc(Cn2ccc3c4c(N)nc(N)nc4ccc32)cc1,0.0589 µM
3,C[C@@H]1CN([C@H](C)CO)C(=O)c2cc(NC(=O)Nc3ccccc3)ccc2O[C@@H]1CN(C)Cc1ccc(C(=O)Nc2ccccc2N)cc1,9.7 µM
4,C[C@@H]1CN([C@@H](C)CO)S(=O)(=O)c2ccc(C#Cc3ccncc3)cc2O[C@H]1CN(C)S(=O)(=O)c1ccccc1,12.4 µM
5,C/C(=C\c1ccccc1)C(=O)N1CCC=CC1=O,9 µM
6,CCOc1ccc(N=Nc2ccc(O)c3ncccc23)cc1,0.5 µM
7,O=C(Nc1cccc(S(=O)(=O)N2CCCC2)c1)c1ccc(Cl)nc1,6.28 µM
8,COc1ccc(/C=C/C(=O)c2ccc(C(=O)/C=C/c3ccc(OC)c(OC)c3)cc2)cc1OC,5.02 µM
9,CCOC(=O)[C@]12Cc3ccc(C)cc3[C@H]1N(C1CCCCC1)C(=O)c1ccccc12,5.01 µM
10,C[C@H]1CN([C@@H](C)CO)C(=O)c2cc(N(C)C)ccc2O[C@H]1CN(C)Cc1ccc(C(=O)Nc2ccccc2N)cc1,8.84 µM
11,CC(=O)OC1CC(OC2C(O)CC(OC3C(O)CC(OC4CCC5(C)C(CCC6C5CCC5(C)C(C7=CC(=O)OC7)CCC65O)C4)OC3C)OC2C)OC(C)C1OC1OC(CO)C(O)C(O)C1O (stereo not given),0.105 µM
12,CN1C2CCC1/C(=C/c1ccccn1)C(=O)/C2=C\c1ccccn1,0.362 µM
13,CCCN1C(=O)/C(=C/c2nc3ccccc3c(=O)[nH]2)c2ccccc21,22 µM
14,Cc1c(CCOC(=O)CC23CC4CC(CC(C)(C4)C2)C3)sc[n+]1CC(=O)c1ccccc1,19.5 µM
15,O=C(NC1CCCC1)N1CCCCN2[C@@H](CO)[C@@H](c3ccc(/C=C/c4ccccc4)cc3)[C@@H]2C1,7.8 µM
16,COC(=O)C(CC#Cc1ccc2c(c1)[C@]1(C(=O)N2)[C@H](c2ccc(OCCO)cc2)N2[C@H](c3ccccc3)[C@H](c3ccccc3)OC(=O)[C@H]2[C@@H]1C(=O)N1CCN(c2ncccn2)CC1)C(=O)OC,7.81 µM
17,Cc1cccc(CN2C(=O)/C(=C\c3ccc(C(=O)NCCCN4CCN(C)CC4)cc3)Oc3ccccc32)c1,12.3 µM
18,COC(=O)C[C@@H]1CC[C@@H]2[C@H](COc3ccc(NC(=O)Nc4ccc(C#N)cc4)cc3C(=O)N2C)O1,23.1 µM
19,C[C@H]1CCCCO[C@H](CN(C)Cc2ccc(C(F)(F)F)cc2)[C@@H](C)CN([C@@H](C)CO)C(=O)c2cc(NC(=O)Nc3ccccc3)ccc2O1,12.6 µM

row,Compound,AC35
1,O=C1c2ccccc2C(=O)c2cc(N3CCCCC3)ccc21,16.8 µM
2,O=C1Nc2cc(C(=O)NCCN3CCCCCC3)ccc2S/C1=C\c1ccccc1,8.37 µM
3,COc1ccc(/C=C2\Oc3ccccc3C2=O)cc1,22.9 µM
4,CN(C)c1ccc(C=c2c3ccccc3n3c2c2c([n+]3C)CCCC2)cc1,2.82 µM
5,CN(c1ccc(NC(=O)CCc2c[nH]c3ccccc23)cc1)c1ccccn1,9.08 µM
6,C#CCOCCOCCOCCNc1nc(N2CCN(C(=O)CCCCCCCCCCNC(=O)Cn3cc(C[C@@H](C)O)nn3)CC2)nc(N2CCN(C(=O)CCCCCCCCCCNC(=O)[C@H](CO)n3cc(CCCSC)nn3)CC2)n1,13.3 µM
7,COc1cc(C(=O)N2CCC(N3CCN(C)CC3)CC2)ccc1Nc1ncc2c(n1)N(C)c1ccccc1C(=O)N2C,10 µM
8,CC1=NN(c2ccccc2)C(=O)/C1=C\C=C\c1ccccc1,3.99 µM
9,CN=c1scc(-c2ccccc2F)n1/N=C/c1ccc(O)c(O)c1O,11.6 µM
10,CC1OC(OC2CC(O)C3(CO)C4C(O)CC5(C)C(C6=CC(=O)OC6)CCC5(O)C4CCC3(O)C2)C(O)C(O)C1O (stereo not given),0.105 µM
11,Oc1c(Cl)cc(Cl)c2cccnc12,5.58 µM
12,CCOc1ccc(N=C2C(=O)Nc3ccc(C)c(Br)c32)cc1,20.7 µM
13,Cn1ccc2cc(-c3ccc4ncnc(NCc5cccs5)c4c3)ccc21,4.58 µM
14,COc1cc2c(OC(C)=O)c3c(c(-c4ccc5c(c4)OCO5)c2cc1OC)C(=O)OC3,0.0216 µM
15,N#CC1=C(N)Oc2cc(N)ccc2C1c1cccc(F)c1 (stereo not given),3.12 µM
16,C[C@@H]1CN([C@@H](C)CO)C(=O)Cc2cc(N(C)C)ccc2O[C@H]1CN(C)Cc1ccc(C(=O)Nc2ccccc2N)cc1,8.7 µM
17,CC(C)(C)c1ccc(Oc2ccc(NC(=O)c3ccccc3C(=O)O)cn2)cc1,22.2 µM
18,COCCOC(=O)N1C(=O)[C@@]2(c3cc(C#CCC(C(=O)OC)C(=O)OC)ccc31)[C@H](c1ccccc1OCCO)N1[C@H](c3ccccc3)[C@H](c3ccccc3)OC(=O)[C@H]1[C@@H]2C(=O)N1CCN(c2ncccn2)CC1,5.04 µM
19,O=C(/C=C/c1cc(Br)ccc1O)c1ccco1,12.3 µM

row,Compound,AC35
1,Nc1ccn([C@@H]2O[C@H](CO)[C@@H](O)C2O)c(=O)n1 (stereo not given in full),0.448 µM
2,CC1=NN(c2ccc(C)cc2)C(=O)/C1=C\C=C\c1ccccc1,7.95 µM
3,C[C@H]1CN([C@@H](C)CO)C(=O)Cc2cc(NC(=O)CCCCCC(=O)Nc3ccccc3N)ccc2O[C@H]1CN(C)Cc1ccc(Oc2ccccc2)cc1,6.08 µM
4,C/C(=N\NC(=O)c1n[nH]c2c1CCC2)c1cccs1,19.3 µM
5,C[C@@H]1CN([C@H](C)CO)S(=O)(=O)c2ccc(C#CC(C)(C)O)cc2O[C@H]1CN(C)Cc1ccc(-c2ccccc2)cc1,7.19 µM
6,CC(C)=CCC/C(C)=C/CN1C(=O)N(c2ccc(F)cc2)[C@H]2C[C@@H](c3ccccc3)[C@@H](C)[C@@H](C(=O)N3CCOCC3)C[C@H]21,5.03 µM
7,OCC1OC(n2cnc3c(NCc4ccco4)ncnc32)C(O)C1O (stereo not given),4.04 µM
8,COc1ccc(C(C)(O)c2nc(-c3cccc(F)c3)cs2)cc1 (stereo not given),9.33 µM
9,CN(C)CC1CCC/C(=C\c2ccc(OC(=O)c3ccc(Cl)cc3)cc2)C1=O (stereo not given),0.771 µM
10,COc1ccc(-c2cc(CNc3nc(NC(C)C)nc4cc(-c5ccccc5)sc34)on2)cc1,10 µM
11,C[C@@H]1CCCCO[C@H](CN(C)Cc2ccc(C(=O)Nc3ccccc3N)cc2)[C@@H](C)CN([C@H](C)CO)C(=O)c2cc(NS(=O)(=O)c3ccc(F)cc3)ccc2O1,14.1 µM
12,COc1ccc(OC)c(-c2nnc3n2N=C(c2ccc(OC)c(OC4CCOC4)c2)CS3)c1 (stereo not given),3.24 µM
13,O=C1NC(=S)NC(=O)C1=Cc1cccn1-c1ccc(O)cc1,17.7 µM
14,COc1ccccc1N(/N=C1\Sc2ccccc2C1=O)C(C)=O,14.8 µM
15,O=c1cc(CN2CCN(Cc3ccccc3)CC2)c2ccc(O)c(O)c2o1,8.02 µM
16,COc1ccc(-c2nc3c(s2)CCc2onc(-c4ccc(OC)cc4)c2-3)cc1,8 µM
17,CCCCCCCCCCCCCCCCn1cc[n+](C)c1,12.6 µM
18,Cc1ccc(S(=O)(=O)Nc2ccc3c(c2)C(=O)N([C@@H](C)CO)C[C@@H](C)[C@@H](CN(C)Cc2ccc(C(=O)Nc4ccccc4N)cc2)O3)cc1,9.91 µM
